Data from patent publication US7572794B2, “Anthranilamide pyridinureas as vascular endothelial growth factor (VEGF) receptor kinase inhibitors” (Bayer Schering Pharma AG, priority 2004, dated 2009).

Key:
[1] = target: T1, KDR-Kinase (VEGFR-2) (Homo sapiens, UniProt P35968); assay: KDR Kinase Inhibition; assay type: biochemical; settings: GST-kinase domain fusion construct of KDR; poly(Glu4Tyr) substrate, 32P-ATP, 10 min
T1 construct: GST-kinase domain fusion construct of the KDR kinase; GST
Experimental: Kinase activity was measured with a GST-kinase domain fusion construct of the KDR kinase according to the following protocol to obtain concentration response curves. Components were added into a microtiterplate in the following sequence: 10 μl of inhibitor in threefold final concentration [3% DMSO in buffer (40 mM TrisCl pH 7.5; 1 mM DTT, 1 mM MnCl2, 10 mM MgCl2, 2.5 Promille Polyethyleneglycol 20000)]and 10 μl of substrate mixture [24 μM ATP, 24 μg/ml poly(Glu4Tyr) in buffer, specific activity approx. 500 cpm/pmol ^32P-[…]ATP]. Reaction was started by adding 10 μl of enzyme preparation diluted appropriately in buffer that contains 10 μM vanadate. After incubation for exactly 10 min the reaction was stopped by adding of 10 μl stop solution (250 mM EDTA). 10 μl of the reaction mixture were transferred to phosphocellulose filters. The filters were washed in 0.1% phosphoric acid, dried before meltilex scintillator was applied (Waltac, Perkin-Elmer) and the radioactivity was counted.

[2] = target: T2, Cytochrome P450 isoenzyme 2C19 (Homo sapiens, UniProt P33261); assay: Cytochrome P450 Inhibition (2C19); assay type: in vitro ADME; settings: baculovirus/insect cell-expressed human isoenzyme, method of Crespi et al.; read-out: IC50 CYP 2C19
T2 construct: host or cells: baculovirus/insect cells
Experimental: (§1) Cytochrome P450 Inhibition
(§2) The Cytochrome P450 isoenzyme inhibition was performed according to the publication of Crespi et al. (Anal. Biochem., 1997, 248, 188-190) with use of the baculovirus/insect cell-expressed, human Cytochrome P 450 isoenzymes (2C9 and 2C19).

[3] = target: T3, Cytochrome P450 isoenzyme 2C9 (Homo sapiens, UniProt P11712); assay: Cytochrome P450 Inhibition (2C9); assay type: in vitro ADME; settings: baculovirus/insect cell-expressed human isoenzyme, method of Crespi et al.; read-out: IC50 CYP 2C9
T3 construct: host or cells: baculovirus/insect cells
Experimental: as §1, §2

T3 sequence (P11712 whole entry): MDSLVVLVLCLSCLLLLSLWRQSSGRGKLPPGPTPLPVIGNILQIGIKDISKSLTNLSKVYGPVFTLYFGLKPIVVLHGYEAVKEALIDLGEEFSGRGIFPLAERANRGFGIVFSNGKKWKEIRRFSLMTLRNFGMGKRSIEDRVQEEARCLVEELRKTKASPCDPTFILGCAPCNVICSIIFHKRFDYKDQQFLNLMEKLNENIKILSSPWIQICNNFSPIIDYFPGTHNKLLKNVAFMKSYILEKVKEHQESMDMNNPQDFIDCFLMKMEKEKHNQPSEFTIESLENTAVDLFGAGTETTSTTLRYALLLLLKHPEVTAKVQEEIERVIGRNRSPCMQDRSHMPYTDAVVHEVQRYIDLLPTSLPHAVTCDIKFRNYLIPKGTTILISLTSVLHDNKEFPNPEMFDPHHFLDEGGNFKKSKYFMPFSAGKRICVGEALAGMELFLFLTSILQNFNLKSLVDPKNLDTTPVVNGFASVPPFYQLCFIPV
T1 sequence (P35968 834-1162 limits assumed, species assumed): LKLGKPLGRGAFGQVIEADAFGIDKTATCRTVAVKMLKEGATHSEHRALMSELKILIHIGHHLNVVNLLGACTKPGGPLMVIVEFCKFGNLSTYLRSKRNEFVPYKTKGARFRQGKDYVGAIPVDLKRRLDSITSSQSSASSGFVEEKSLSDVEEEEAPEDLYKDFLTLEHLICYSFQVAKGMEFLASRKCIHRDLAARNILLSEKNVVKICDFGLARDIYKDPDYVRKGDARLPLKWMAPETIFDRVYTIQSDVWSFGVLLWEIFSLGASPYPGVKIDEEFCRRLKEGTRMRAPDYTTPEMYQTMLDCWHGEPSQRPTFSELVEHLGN
T2 sequence (P33261 whole entry): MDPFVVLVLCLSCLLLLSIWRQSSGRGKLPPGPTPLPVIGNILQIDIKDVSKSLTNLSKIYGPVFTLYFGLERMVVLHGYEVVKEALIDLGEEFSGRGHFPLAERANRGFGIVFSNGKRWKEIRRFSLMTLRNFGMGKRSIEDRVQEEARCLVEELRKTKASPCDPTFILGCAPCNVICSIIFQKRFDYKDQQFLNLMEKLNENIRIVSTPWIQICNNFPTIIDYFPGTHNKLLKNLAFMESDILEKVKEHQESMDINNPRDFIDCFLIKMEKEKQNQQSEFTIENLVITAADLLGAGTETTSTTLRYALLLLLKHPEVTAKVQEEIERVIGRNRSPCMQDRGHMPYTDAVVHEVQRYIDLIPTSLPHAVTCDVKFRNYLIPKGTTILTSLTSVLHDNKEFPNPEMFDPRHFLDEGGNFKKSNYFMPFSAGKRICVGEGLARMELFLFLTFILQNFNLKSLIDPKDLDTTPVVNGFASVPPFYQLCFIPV

SMILES | IC50 [1] | IC50 [2] | IC50 [3]
Cn1cc2ccc(NC(=O)c3ccccc3NCc3ccnc(NC(=O)N4CCC(O)(C(F)(F)F)CC4)c3)cc2n1 [Example 1.2, 4-hydroxy-4-trifluoromethyl-piperidine-1-carboxylic acid (4-{[2-(2-methyl-2H-indazol-6-ylcarbamoyl)-phenylamino]-methyl}-pyridin-2-yl)-amide] | 0.017 µM | 12 µM | 19 µM
Cn1cc2ccc(NC(=O)c3ccccc3NCc3ccnc(NC(=O)N4CCC(O)CC4)c3)cc2n1 [Example 1.1, 4-hydroxy-piperidine-1-carboxylic acid (4-{[2-(2-methyl-2H-indazol-6-ylcarbamoyl)-phenylamino]-methyl}-pyridin-2-yl)-amide] | 0.02 µM | 27 µM | 16 µM
Cn1cc2ccc(NC(=O)c3ccccc3NCc3ccnc(NC(=O)N4CCOCC4)c3)cc2n1 [Example 3.6, morpholine-4-carboxylic acid (4-{[2-(2-methyl-2H-indazol-6-ylcarbamoyl)-phenylamino]-methyl}-pyridin-2-yl)-amide] | 0.029 µM | 9 µM | 13 µM
CN1CCN(C(=O)Nc2cc(CNc3ccccc3C(=O)Nc3ccc4cn(C)nc4c3)ccn2)CC1 [Example 3.0, 4-methyl-piperazine-1-carboxylic acid (4-{[2-(2-methyl-2H-indazol-6-ylcarbamoyl)-phenylamino]-methyl}-pyridin-2-yl)-amide] | 0.029 µM | 8.9 µM | 4.4 µM
